The assay concerns 596521-263-R-J1-PDC complex spheroids, viability % of control. Put plainly: Anticancer human tumor 596521-263-R-J1-PDC patient-derived soft tissue sarcoma cell line growth inhibition [GQUAD]. The settings on record: for viability, T/C: stronger effect = lower value. The source says: DNA G-quadruplex Stabilizer Agents in Combinations in Complex Spheroids
A high-throughput screen of multi-cell type tumor spheroids was designed to identify active combinations of DNA G-quadruplex stabilizer agents and targeted small molecules. Complex spheroids include a stromal component modeled by human endothelial cells (HUVEC) and fibroblasts modeled by human mesenchymal stem cells (MSCs). The concentration ranges selected for each drug and investigational agent were based upon clinically achievable concentrations if the clinical Cmax of the agent was known.
Compounds. The drugs and investigational agents: pidnarulex (CX-5461; NSC782164), APTO-253 (NSC789042), BRACO-19 (NSC847499), peposertib (NSC802822), ceralasertib (NSC780249), elimusertib (NSC800525), camonsertib (NSC841442), AZD-1390 (NSC803789), olaparib (NSC753686), talazoparib (NSC767125), ART-558 (NSC835418), sotorasib (NSC818433), MRTX-1133 (NSC836407), SN-38 (NSC673596), topotecan (NSC609699), etoposide (NSC141540), doxorubicin (NSC123127), gemcitabine (NSC613327), 5-fluorouracil (NSC19893), paclitaxel (NSC125973), vemurafenib (NSC761431), panobinostat (NSC761190), R-306465 (JNJ-16241199; NSC773264), adavosertib (NSC754352), TP-3654 (NSC805149), carboplatin (NSC241240), KSQ-4279 (NSC840948), and staurosporine (NSC755774) were obtained from the National Cancer Institute (NCI) Developmental Therapeutics Program Chemical Repository (34). The FDA-approved anticancer drug set is available from the NCI Developmental Therapeutics Program. […] The stock solutions were prepared in dimethyl sulfoxide (DMSO, Sigma-Aldrich, St. Louis, MO, cat. D2650) at 800-fold the tested concentration and stored at -70 degrees C prior to their use. All drugs and investigational agents were tested over a range starting from a high concentration at or near the clinical Cmax and decreasing in half-log increments. If the clinical Cmax for an agent had not been determined, the highest concentration tested was 10 microM.
2.3 Cell Culture. All cells were maintained in an incubator at 37 degrees C and 5% CO2 with 95% humidity. The PDC lines were cultured according to standard operating procedures established by the NCI PDMR. All PDCs were thawed and cultured in Matrigel-coated flasks prepared with a working solution of 1X Ham's F-12 nutrient mix, without supplementation (Invitrogen, cat. 11765054), 100 U/mL penicillin-streptomycin (Invitrogen, cat. 15140122), and 2.5% Matrigel (Corning Inc., cat. 354248) for the first three passages. The 857933-349-R-J2-PDC line was cultured in 6C/Colon 1B media, which includes advanced DMEM/F-12 (Thermo Fisher Scientific, cat. 12634028), 10 mM HEPES (Thermo Fisher Scientific, cat. 15630080), 1X GlutaMAX supplement (Thermo Fisher Scientific, cat. 35050061), 0.1 mg/mL primocin (InvivoGen, cat. ant-pm-2), 10% defined fetal bovine serum, heat inactivated (HyClone Laboratories Inc., cat. SH30070.03HI), 50% L-WRN conditioned media (ATCC, cat. CRL-3276), 1.25 mM N-Acetyl-L-cysteine (Sigma-Aldrich, cat. A9165), 10 mM nicotinamide (Sigma-Aldrich, cat. N0636), 1X B-27 supplement (Thermo Fisher Scientific, cat. 17504044), 1X N-2 supplement (Thermo Fisher Scientific, cat. 17502048), 10 microM Y-27632 dihydrochloride (Tocris Bioscience, cat. 1254), and 50 ng/mL human EGF recombinant protein (Thermo Fisher Scientific, cat. PHG0311). The 485176-168-R4-J1-PDC line was cultured in Panc media, which includes all 6C/Colon 1B media components plus 100 ng/mL human FGF-10 (Thermo Fisher Scientific, cat. 100-26), 500 nM SB-431542 (Selleckchem, cat. S1067), and gastrin (Tocris, cat. 3006).
[…]

Values joined by “and” are separate entries in the source; they are usually repeats but may differ in a detail not shown here. Equal values may be shown once.
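Further: spheroids exposed to drugs for 7 days before viability reading.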

Broadly, the IC50 is the point on the concentration scale where inhibition reaches its midpoint. As usually defined, the viability, T/C is the result in the treated group divided by that in the control group, in per cent. For `Cc1[nH]c2ccccc2c1CCNCc1ccc(/C=C/C(=O)NO)cc1` + Cc1[nH]c2ccc(F)cc2c1-c1nc2c3cccnc3c3ncccc3c2[nH]1, the IC50 reads like this: (curve of first compound, second compound 0.0316 µM) greater than 0.316 µM; (curve of first compound, second compound 0.1 µM) greater than 0.316 µM; (curve of first compound, second compound 0.316 µM) greater than 0.316 µM; (curve of first compound, second compound 1 µM) greater than 0.316 µM; (curve of first compound, second compound 3.16 µM) greater than 0.316 µM; (curve of first compound, second compound 10 µM) greater than 0.316 µM. Besides, the viability, T/C is, setting by setting: (second compound 0.0316 µM, first compound 0.000999 µM) 108%; (second compound 0.0316 µM, first compound 0.00316 µM) 97%; (second compound 0.0316 µM, first compound 0.00999 µM) 100%; (second compound 0.0316 µM, first compound 0.0316 µM) 82%; (second compound 0.0316 µM, first compound 0.0999 µM) 96.4%; (second compound 0.0316 µM, first compound 0.316 µM) 90.1%. Besides, the viability, T/C runs as follows: (second compound 0.1 µM, first compound 0.000999 µM) 99.3%; (second compound 0.1 µM, first compound 0.00316 µM) 90.6%; (second compound 0.1 µM, first compound 0.00999 µM) 94.2%; (second compound 0.1 µM, first compound 0.0316 µM) 91.3%; (second compound 0.1 µM, first compound 0.0999 µM) 86.9%; (second compound 0.1 µM, first compound 0.316 µM) 92.7%. In addition, the viability, T/C was 102% (second compound 0.316 µM, first compound 0.000999 µM); 94.7% (second compound 0.316 µM, first compound 0.00316 µM); 93.2% (second compound 0.316 µM, first compound 0.00999 µM); 94.3% (second compound 0.316 µM, first compound 0.0316 µM); 87% (second compound 0.316 µM, first compound 0.0999 µM); 94.9% (second compound 0.316 µM, first compound 0.316 µM). The viability, T/C runs as follows: (second compound 1 µM, first compound 0.000999 µM) 95.9%; (second compound 1 µM, first compound 0.00316 µM) 99.6%; (second compound 1 µM, first compound 0.00999 µM) 91.4%; (second compound 1 µM, first compound 0.0316 µM) 83.9%; (second compound 1 µM, first compound 0.0999 µM) 90.1%; (second compound 1 µM, first compound 0.316 µM) 94.2%. The viability, T/C (second compound 3.16 µM, first compound 0.000999 µM) is 82.6%; the viability, T/C (second compound 3.16 µM, first compound 0.00316 µM) is 82.2%; the viability, T/C (second compound 3.16 µM, first compound 0.00999 µM) was 91%; the viability, T/C (second compound 3.16 µM, first compound 0.0316 µM) is 90.1%; the viability, T/C (second compound 3.16 µM, first compound 0.0999 µM) is 84.1%; the viability, T/C (second compound 3.16 µM, first compound 0.316 µM) was 88.8%. Also, the viability, T/C runs as follows: (second compound 10 µM, first compound 0.000999 µM) 81.2%; (second compound 10 µM, first compound 0.00316 µM) 67.2%; (second compound 10 µM, first compound 0.00999 µM) 85%; (second compound 10 µM, first compound 0.0316 µM) 75.5%; (second compound 10 µM, first compound 0.0999 µM) 76.4%; (second compound 10 µM, first compound 0.316 µM) 72%.

In the case of `CCCS(=O)(=O)Nc1ccc(F)c(C(=O)c2c[nH]c3ncc(-c4ccc(Cl)cc4)cc23)c1F`, the viability, T/C is, setting by setting: (compound 0.0316 µM) 105% and 100% and 95.2%; (compound 0.1 µM) 81.5% and 87% and 92.4%; (compound 0.316 µM) 51.8% and 93% and 109%; (compound 1 µM) 43% and 88.8% and 110%; (compound 3.16 µM) 40% and 64.2% and 82.7%; (compound 10 µM) 34.2% and 30.7% and 36.3%.

For the compound `Cc1[nH]c2ccccc2c1CCNCc1ccc(/C=C/C(=O)NO)cc1`, the viability, T/C was 101% and 103% and 95.3% (compound 0.000999 µM); 90.3% and 84.7% and 95.6% (compound 0.00316 µM); 96.9% and 70% and 80.2% (compound 0.00999 µM); 96.4% and 54% and 57.8% (compound 0.0316 µM); 101% and 27.6% and 35.7% (compound 0.0999 µM). The half-inhibitory concentration (IC50) (curve of compound) is > 0.316 µM and 0.0337 µM and 0.0499 µM.

As to `CCc1c2c(nc3ccc(O)cc13)-c1cc3c(c(=O)n1C2)COC(=O)[C@]3(O)CC`, the viability, T/C was 62% and 58.6% and 64.2% (compound 0.000999 µM); 58% and 49.7% and 56.6% (compound 0.00316 µM); 51.5% and 50.8% and 46.9% (compound 0.00999 µM); 34.9% and 28.8% and 33.9% (compound 0.0316 µM); 19.2% and 15.7% and 20.2% (compound 0.0999 µM); 6.84% and 7.73% and 9.09% (compound 0.316 µM). Besides, for the setting “curve of compound”, the concentration for half-maximal inhibition (IC50) is 0.0105 µM and 0.00682 µM and 0.00681 µM.

Turning to `COc1ncnc(C2CC2)c1-c1ncc2cnn(Cc3ccc(-c4nc(C(F)(F)F)cn4C(C)C)cc3)c2n1`, the viability, T/C was 98.6% and 108% and 92.8% (compound 0.0316 µM); 105% and 94.8% and 99.3% (compound 0.1 µM); 97.8% and 85.6% and 98.5% (compound 0.316 µM); 100% and 65.5% and 81.5% (compound 1 µM); 99.2% and 28.8% and 94.3% (compound 3.16 µM). Also, the IC50 (curve of compound) was > 10 µM and 1.58 µM.
